{"source": "patent US8592374B2", "about": "“Neurotrophic peptides” (Research Foundation for Mental Hygiene, Inc., priority 2007, dated 2013)", "key": {"[1]": {"test_system": "dentate gyrus", "experiment": "MAP2 and synaptophysin immunoreactivity in the dentate gyrus (mean pixel intensity), Example 3", "assay_type": "in vivo, mice", "conditions": "mean pixel intensity in outlined area", "procedure": "(§1) The animals were kept in groups of 3 per cage. The mice were given daily intraperitoneal injections of four CNTF peptides either separately or in a mixture for 2 weeks as described in table 1. From day 2, BrdU (Bromodeoxyuridine; 150 mg/Kg) was added to the injections. The animals were sacrificed 24 hours after the last injection (FIG. 1). Briefly, the animals were perfused transcardially with PBS and their brains taken out and dissected into halves. One hemisphere from each animal was frozen for biochemical analysis and the other was fixed in 4% paraformaldehyde for 48 hours followed by equilibration in 30% sucrose in PBS overnight. These were then processed for immunohistochemistry."}, "[2]": {"test_system": "signal transduction of LIF and CNTF", "experiment": "Interference with signal transduction of LIF and CNTF"}, "[3]": {"test_system": "dentate gyrus progenitor cells", "experiment": "Cell proliferation (BrdU labeled cells) in the dentate gyrus of mice given CNTF peptides i.p.", "assay_type": "in vivo", "from_the_text": "(§2) All experiments involving mice were done on 8-10 month old female retired breeders of C57BL6 background. A total of 33 mice were divided into 10 groups of 3 animals each (except control group which had 6 mice). The groups are described in Table 1. Details of CNTF peptides are described in Table 2.\nas §1, with “Table” for “table”, “injection.” for “injection (FIG. 1).”\nFixed tissues were cut into 40 μm sections on a freezing sliding microtome. One in 5 sections per brain was processed for BrdU staining and visualized by immunoflorecence. Cell counting was done on these sections to determine the number of BrdU labeled cells (representing newly born cells) in the dentate gyrus of the hippocampus. The area of counting was limited to the granule cell layer and the subgranular zone (a two-nucleus thick layer adjacent to the granule cell layer). For counting purposes, the dentate gyrus was divided into two areas, the outer granule cell layer (oGCL) consisting of one half of the granule cell layer, and the subgranular zone (SGZ) of the inner half (towards the hilus) of the granule cell layer plus a two-nucleus thick layer adjacent to the outer border of the hilus. Cell counting was done on confocal images of the sections according to the optical dissector principle. Volumetric analysis was carried out with the help of Image Pro software.\nas §1\n(§3) Fixed tissues were cut into 40 μm sections on a freezing sliding microtome. One in 5 sections per brain was processed for BrdU staining and visualized by immunoflorecence. Cell counting was done on these sections to determine the number of BrdU labeled cells (representing newly born cells) in the dentate gyrus of the hippocampus. The area of counting was limited to the granule cell layer and the subgranular zone (a two-nucleus thick layer adjacent to the granule cell layer). For counting purposes, the dentate gyrus was divided into two areas, the outer granule cell layer (oGCL) consisting of out half of the granule cell layer, and the […] comprising of the inner half (towards the hilus) of the granule cell layer plus a two-nucleus thick layer adjacent to the outer border of the hilus. Cell counting was done on confocal images of the sections according to the optical dissector principle. Volumetric analysis was carried out with the help of Image Pro software."}, "[4]": {"test_system": "dentate gyrus progenitors", "experiment": "DCX expression in BrdU labeled progenitors in the dentate gyrus", "assay_type": "in vivo, mice", "conditions": "14 day treatment group", "from_the_text": "as §2, §1, §3"}, "[5]": {"test_system": "mice", "experiment": "Morris Water Maze, Peptide 6 subcutaneous pellets", "assay_type": "in vivo", "conditions": "30 day group", "procedure": "Behavioral tests employing Morris Water maze task-based memory acquisition, retention and recall paradigms have also been carried out. Two groups of 18 mice each were treated with Peptide 6/Placebo containing implantable subcutaneous pellets with user specified timed release kinetics: 14 days for group 1 and 30 days for group 2."}, "[6]": {"conditions": "both concentrations (0.5 and 5 nmoles/animal)"}}, "data": [{"substance": "Ac-VGDGGLFEKKL-NH2 [Peptide 6]", "values": [{"measurement": "MAP2 immunoreactivity in the dentate gyrus", "setting": "[1]", "value": "statistically significant increase"}, {"measurement": "synaptophysin immunoreactivity in the dentate gyrus", "setting": "[1]", "value": "statistically significant increase"}, {"measurement": "interference with signal transduction of LIF versus CNTF", "setting": "[2]", "value": "interferes with the signal transduction of LIF more than with that of CNTF"}, {"measurement": "cell proliferation in the SGZ (subgranular zone)", "setting": "[3]; [6]", "value": "increased cell proliferation"}, {"measurement": "cell proliferation in the oGCL (outer portion of the granule cell layer)", "setting": "[3]; [6]", "value": "increased cell proliferation"}, {"measurement": "proliferation of dentate gyrus progenitor cells compared with Peptide 9", "setting": "[3]; daily i.p. injections for 2 weeks", "value": "more proliferation than Peptide 9"}, {"measurement": "proliferation of dentate gyrus progenitor cells", "setting": "[3]; daily i.p. injections for 2 weeks, BrdU labeling, 8-10 month old female C57BL6 mice", "value": "statistically significant increase"}, {"measurement": "differentiation of dentate gyrus progenitors into DCX (doublecortin) expressing cells", "setting": "[4]", "value": "two fold increase"}, {"measurement": "memory acquisition (time spent and distance covered in the target quadrant), Morris Water Maze", "setting": "[5]", "value": "significant improvement in memory acquisition"}]}]}
